Numbered stars: 1 amine (or outer) side, 2 acyl side, 3 side chain; on linkers, the order of the positions; unused ones are H or OH. Bridge positions count the residues as written; N and C are the ends. Square brackets hold non-standard residues; d marks the D form. Peptide text beside a SMILES is read from it. * marks the point of attachment. DOTA = O=C(O)CN1CCN(CC(=O)O)CCN(CC(=O)*)CCN(CC(=O)O)CC1; TATA = O=C(CC[*:1])N1CN(C(=O)CC[*:2])CN(C(=O)CC[*:3])C1; Hyp = O=C(O)[C@@H]1C[C@@H](O)CN1; hArg = N=C(N)NCCCC[C@H](N)C(=O)O; Cba = N[C@@H](CC1CCC1)C(=O)O; βAla = NCCC(=O)O; Sar = CNCC(=O)O
Columns and labels:
Human EphA3 = target: T1, Human EphA3 (Homo sapiens, UniProt P29320); test: SPR homologue panel, EphA3; conditions: human EphA3, n=1; read-out: KD, no binding up to
T1 construct: purchased R&D Systems 644-A3
T1 sequence (P29320 with tags, fused parts or gaps limits assumed): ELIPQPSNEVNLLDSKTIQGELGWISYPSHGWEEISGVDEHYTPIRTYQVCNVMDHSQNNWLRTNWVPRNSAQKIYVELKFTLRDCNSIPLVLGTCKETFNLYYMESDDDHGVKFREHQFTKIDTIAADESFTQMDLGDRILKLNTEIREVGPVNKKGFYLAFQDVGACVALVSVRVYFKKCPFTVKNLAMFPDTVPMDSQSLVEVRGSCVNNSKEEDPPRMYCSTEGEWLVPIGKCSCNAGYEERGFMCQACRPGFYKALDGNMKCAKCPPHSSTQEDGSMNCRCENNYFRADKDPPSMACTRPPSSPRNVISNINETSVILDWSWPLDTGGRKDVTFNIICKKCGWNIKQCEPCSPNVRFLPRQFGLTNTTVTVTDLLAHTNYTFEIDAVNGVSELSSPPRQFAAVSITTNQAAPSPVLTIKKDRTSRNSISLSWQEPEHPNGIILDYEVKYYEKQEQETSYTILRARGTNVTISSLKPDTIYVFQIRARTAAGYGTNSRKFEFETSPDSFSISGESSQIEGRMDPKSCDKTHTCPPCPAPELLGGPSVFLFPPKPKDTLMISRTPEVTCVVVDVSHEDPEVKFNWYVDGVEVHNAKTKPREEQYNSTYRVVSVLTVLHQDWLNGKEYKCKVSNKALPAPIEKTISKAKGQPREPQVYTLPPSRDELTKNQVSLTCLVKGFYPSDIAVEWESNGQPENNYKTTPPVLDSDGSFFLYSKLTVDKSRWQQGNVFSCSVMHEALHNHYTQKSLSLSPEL
Description: (§1) The commercial source details of the recombinant proteins used in SPR were as follows: Human proteins: EphA1 (15789-H02H, Sino Biological), EphA3 (644-A3, R&D Systems), EphA6 (5606-A6, R&D Systems), EphA7 (6756-A7, R&D Systems). Mouse proteins: Mouse EphA2 was purchased from R&D Systems (Product number 639-A2). Mouse EphA2-Fc was resuspended as per manufacturer's recommendations and material was passed through a SuperdexS200 column to remove aggregates.
(§2) SPR experiments were performed on a Biacore 8K+ (Cytiva Life Sciences, USA) instrument, with methods matched for both human and mouse EphA2 protein. Protein was captured on to a Cytiva NTA sensor chip (Cytiva Life Sciences), via the expressed His-tag; this was followed by primary amine coupling chemistry to covalently immobilize the protein to the chip at 25°C. Initially the surface was injected with 0.5 mM NiCl2 for 2 minutes, followed by activation of the carboxymethyl dextran surface for 7 minutes using an injection of a 1:1 ratio of 0.4 M 1-ethyl-3-(3-dimethylaminopropyl) carbodiimide hydrochloride (EDC)/0.1 M N-hydroxy succinimide (NHS) at a flow rate of 10 µL/min.
(§3) Peptide was prepared in PBS/0.05% Tween 20 with a final DMSO concentration of 0.5%. The top peptide concentration was 100 or 500 nM and 5 further 3-fold dilutions. […]

Human EphA4 = Human EphA4 (Homo sapiens, UniProt P54764); test: SPR homologue panel, EphA4; conditions: human EphA4, n=1; read-out: KD, no binding up to
Sequence of Human EphA4 (P54764 20-986): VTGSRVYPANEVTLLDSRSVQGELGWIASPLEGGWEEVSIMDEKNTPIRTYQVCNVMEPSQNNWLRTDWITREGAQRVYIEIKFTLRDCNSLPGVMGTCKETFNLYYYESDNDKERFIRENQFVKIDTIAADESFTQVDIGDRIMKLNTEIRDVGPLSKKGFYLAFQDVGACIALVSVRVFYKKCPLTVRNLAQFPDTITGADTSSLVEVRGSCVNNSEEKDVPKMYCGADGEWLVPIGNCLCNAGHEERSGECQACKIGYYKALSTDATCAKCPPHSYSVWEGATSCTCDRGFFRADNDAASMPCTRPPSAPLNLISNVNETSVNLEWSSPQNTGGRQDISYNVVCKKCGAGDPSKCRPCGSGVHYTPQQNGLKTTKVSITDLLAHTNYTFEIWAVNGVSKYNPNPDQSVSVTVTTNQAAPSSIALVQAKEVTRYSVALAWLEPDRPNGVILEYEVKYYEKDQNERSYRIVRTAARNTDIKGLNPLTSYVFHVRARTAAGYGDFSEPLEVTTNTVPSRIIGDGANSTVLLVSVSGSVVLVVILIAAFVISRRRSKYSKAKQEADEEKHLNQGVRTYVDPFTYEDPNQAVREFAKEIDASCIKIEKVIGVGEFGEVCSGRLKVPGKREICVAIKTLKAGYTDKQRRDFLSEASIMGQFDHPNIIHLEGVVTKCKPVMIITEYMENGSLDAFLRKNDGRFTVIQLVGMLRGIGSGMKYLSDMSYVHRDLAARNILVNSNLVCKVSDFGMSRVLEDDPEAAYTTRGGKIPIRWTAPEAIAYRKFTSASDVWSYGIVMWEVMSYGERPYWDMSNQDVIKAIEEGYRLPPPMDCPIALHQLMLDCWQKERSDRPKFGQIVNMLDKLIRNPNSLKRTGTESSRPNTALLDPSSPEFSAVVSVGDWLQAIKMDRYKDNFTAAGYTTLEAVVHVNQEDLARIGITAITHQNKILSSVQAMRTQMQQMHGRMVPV

Human EphA6 = target: T2, Human EphA6 (Homo sapiens, UniProt Q9UF33); test: SPR homologue panel, EphA6; conditions: human EphA6, n=1; read-out: KD, no binding up to
T2 construct: purchased R&D Systems 5606-A6
T2 sequence (Q9UF33 23-1036): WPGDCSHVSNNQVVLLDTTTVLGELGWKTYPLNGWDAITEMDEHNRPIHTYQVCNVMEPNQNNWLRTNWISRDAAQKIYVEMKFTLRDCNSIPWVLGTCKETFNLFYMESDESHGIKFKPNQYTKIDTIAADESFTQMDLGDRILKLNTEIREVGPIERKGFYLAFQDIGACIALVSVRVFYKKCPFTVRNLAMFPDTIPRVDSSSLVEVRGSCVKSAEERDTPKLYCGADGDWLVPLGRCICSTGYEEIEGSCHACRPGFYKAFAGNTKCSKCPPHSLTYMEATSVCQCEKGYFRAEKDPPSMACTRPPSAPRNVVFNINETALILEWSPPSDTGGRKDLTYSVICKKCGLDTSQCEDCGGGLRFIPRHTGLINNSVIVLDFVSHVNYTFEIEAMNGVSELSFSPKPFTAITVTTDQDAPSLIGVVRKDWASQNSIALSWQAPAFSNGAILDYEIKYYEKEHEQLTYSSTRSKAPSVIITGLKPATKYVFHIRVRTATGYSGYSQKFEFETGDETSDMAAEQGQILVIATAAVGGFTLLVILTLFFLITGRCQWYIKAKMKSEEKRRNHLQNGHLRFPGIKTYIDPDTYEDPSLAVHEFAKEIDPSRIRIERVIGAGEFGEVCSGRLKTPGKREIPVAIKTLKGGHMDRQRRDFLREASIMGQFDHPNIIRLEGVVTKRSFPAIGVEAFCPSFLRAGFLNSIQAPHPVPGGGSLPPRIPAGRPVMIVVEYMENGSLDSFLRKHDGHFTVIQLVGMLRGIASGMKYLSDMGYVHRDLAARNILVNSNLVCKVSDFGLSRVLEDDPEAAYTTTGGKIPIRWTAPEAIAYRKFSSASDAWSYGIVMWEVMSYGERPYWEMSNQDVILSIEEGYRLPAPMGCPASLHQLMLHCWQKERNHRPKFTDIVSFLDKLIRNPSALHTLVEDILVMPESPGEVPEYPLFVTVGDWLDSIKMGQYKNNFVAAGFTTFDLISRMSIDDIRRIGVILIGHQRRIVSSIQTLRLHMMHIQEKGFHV
Description: as §1, §2, §3

in vitro = in vitro ADME; conditions: plasma
Description: To determine binding to plasma proteins, BCY18469 was labeled with ^68Ga (apparent molar activity 1 GBq/µmol). Thereafter, 10 µL of the labeling mixture were added to 100 µL of mouse or human plasma (mouse: BioIVT, United Kingdom, human: Sigma Aldrich, Germany). The mixture was left for 15 min at room temperature. Afterwards, the plasma was loaded into an ultrafiltration device (Amicon Ultra 0.5ml - 30 kDa, Merck, Germany) and centrifuged at 14,000 rpm for 30 min at r.t. The filtrate and the membrane were measured in a gamma counter (Wizard2, Perkin Elmer, Germany). The amount of plasma-bound compound was calculated based on the counts in the […] relative to the total counts (filtrate + membrane).

in vivo = conditions: male, CD-1 (ICR), mouse, iv, 1 mg/kg
Description: In vivo pharmacokinetic studies were conducted in male CD-1 (ICR) mice, 7-9 weeks of age. […] Serial venous blood samples were taken at 5 min, 15 min, 30 min, 45 min, 1 h, 2 h and 4 h post injection. Samples were immediately transferred into low-binding microcentrifuge tubes containing 2 μL K2-EDTA (0.5 M) as anti-coagulant and kept on ice until processed by centrifugation at 4°C, 3200 g for 10 min. The resulting plasma was transferred into low-binding tubes and the protein precipitated by addition of methanol containing 0.5% Triton X-100 and internal standards (100 ng/mL each of labetalol, tolbutamide, verapamil, dexamethasone, glyburide and celecoxib). Samples were centrifuged at 4°C, 12000 g for 15 min and the supernatant removed, frozen over dry ice and stored at -70°C until LC-MS/MS analysis (Supplementary Materials - Methods). A calibration curve and quality control samples were prepared in the same matrix. Pharmacokinetic parameters were derived from noncompartmental analysis using the intravenous-noncompartmental model 201 (IV bolus input) in Phoenix WinNonlin version 8.3.5 (Certara, USA).

## CC(C)C[C@@H]1NC(=O)[C@@H]2CSCCC(=O)N3CN(CN(C3)C(=O)CCSC[C@H](NC(=O)[C@H](CC(=O)O)NC(=O)[C@H](CCCCNC(=N)N)NC(=O)[C@H](C)NC(=O)CN(C)C(=O)CN(C)C(=O)CN(C)C(=O)CN(C)C(=O)CN(C)C(=O)CN(C)C(=O)CN(C)C(=O)CN(C)C(=O)CN(C)C(=O)CN(C)C(=O)CCNC(=O)CN3CCN(CC(=O)O)CCN(CC(=O)O)CCN(CC(=O)O)CC3)C(=O)N3C[C@H](O)C[C@H]3C(=O)N[C@@H](CC3CCC3)C(=O)N[C@@H](C(C)C)C(=O)N[C@@H](CC(N)=O)C(=O)N3CCC[C@H]3C(=O)N[C@@H](CC(C)C)C(=O)N2)C(=O)CCSC[C@@H](C(N)=O)NC(=O)[C@H](CCCCNC(=N)N)NC(=O)[C@H](Cc2c[nH]c3ccccc23)NC(=O)[C@@H](CC(=O)O)NC(=O)[C@@H]2CCCN2C(=O)[C@H](Cc2c[nH]cn2)NC1=O [BCY18469, [-DOTA]-[B-Ala]-[Sar10]-Ala-[HArg]-Asp-Cys-[HyP]-[Cba]-Val-Asn-Pro-Leu-Cys-Leu-His-Pro-[dAsp]-Trp-[HArg]-Cys-CONH2] ({DOTA-βAla}-[Sar][Sar][Sar][Sar][Sar][Sar][Sar][Sar][Sar][Sar]A[hArg]DC[Hyp][Cba]VNPLCLHP[dD]W[hArg]C-NH2; linker 14-21-28 via TATA)
Human EphA3
  Kd: > 5 µM
Human EphA4
  Kd: > 5 µM
Human EphA6
  Kd: > 5 µM
In vitro; human, Plasma protein binding (% bound peptide)
  fraction unbound at 15 min: 0.567
In vitro; mouse
  fraction unbound at 15 min: 0.489
In vivo
  AUC(0-inf): 701 ng·h/mL
  AUC(0-t): 700 ng·h/mL
  Cmax: 3320 ng/mL
  Vd: 0.39 L/kg
  half-life: 14.4 min
In vivo; CLp
  clearance: 23.9 mL/min/kg
